According to patent US10253041B2, “7-phenylethylamino-4H-pyrimido[4,5-d][1,3]oxazin-2-one compounds and their use as mutant IDH1 inhibitors” (Eli Lilly and Company, priority 2015, dated 2019):
Residue numbers refer to the chain shown, from its start.

How the values were obtained:
IDH2/R172K = molecular target: T1, IDH2/R172K (Homo sapiens, UniProt P48735, R172K); experiment: Biochemical assay for IDH2 R172K mutant enzyme (2HG by RapidFire MS); conditions: mean ± standard deviation of the mean; 90 minutes reaction
T1 construct: His-tag (N); made in house; host or cells: E. coli
T1 sequence (P48735 40-452 R172K): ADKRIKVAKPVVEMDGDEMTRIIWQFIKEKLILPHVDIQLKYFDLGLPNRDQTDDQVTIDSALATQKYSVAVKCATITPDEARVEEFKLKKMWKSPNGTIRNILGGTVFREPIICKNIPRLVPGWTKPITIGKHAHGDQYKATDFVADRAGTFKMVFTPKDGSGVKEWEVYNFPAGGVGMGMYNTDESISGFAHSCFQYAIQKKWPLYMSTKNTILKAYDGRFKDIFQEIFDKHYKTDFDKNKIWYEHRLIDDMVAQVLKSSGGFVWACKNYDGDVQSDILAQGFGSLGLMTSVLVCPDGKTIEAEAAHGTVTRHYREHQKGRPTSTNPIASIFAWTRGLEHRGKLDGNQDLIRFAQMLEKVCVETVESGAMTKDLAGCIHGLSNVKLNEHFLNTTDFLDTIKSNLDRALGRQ
Experimental: (§1) IDH1-R132H, IDH1-R132C, IDH2-R172K and IDH2-R140Q mutant enzymes catalyze the conversion of αKG to 2HG. 2HG is analyzed using in-line solid phase extraction and mass spectrometry. This analysis is carried out in a RapidFire® instrument coupled to a 6460 triple quadrupole mass spectrometer (G6460A Agilent).
(§2) IDH1 mutant (R132H and R132C) and IDH2 mutant (R140Q and R172K) proteins containing N-terminal His-tag are expressed in E. coli and purified using nickel affinity chromatography. The enzyme assays are carried out in V-bottom 96 well polypropylene plates containing 100 mM Tris-HCl buffer, 1 mM DTT, 0.005% TRITON™ X-100, 120 mM NaCl. For IDH1 R132H, α-ketoglutarate, NADPH and MnCl2 are included at final concentrations of 300 μM, 2.5 μM and 300 μM respectively. For IDH1 R132C, α-ketoglutarate, NADPH and MnCl2 are included at final concentrations of 100 μM, 10 μM and 100 μM respectively. For IDH2 R172K, α-ketoglutarate, NADPH and MnCl2 are included at final concentrations of 150 μM, 10 μM and 150 μM respectively. For IDH2 R140Q, α-ketoglutarate, NADPH and MnCl2 are included at final concentrations of 3000 μM, 10 μM and 100 μM respectively. Final pH=7.0. Test compound dissolved in DMSO stock is diluted in the reaction mix at a final DMSO concentration of 4%. Compounds are tested in dose-response format. The assay is started by addition of enzyme. Enzymes are used at the following final concentrations: IDH1 R132H, 2 nM; IDH1 R132C, 0.5 nM; IDH2 R172K, 1.2 nM; IDH2 R140Q, 1.2 nM. After 90 minutes the reaction is quenched by adding ACN (50:50) containing 3-hydroxy-1,5-pentanedioic-2,2,3,4,4-d5 acid (5d5-3HG) as an internal standard for mass spectrometry analysis and quantitation of reaction product. 2-Hydroxyglutarate (2HG) in quenched samples is separated using strong anionic exchange column chromatography (Phenomenex Strata-X-A SecurityGuard) and analyzed by mass spectrometry in a 6460 triple quadrupole mass spectrometer (G6460A Agilent). The 2HG signal detected is transformed into an analyte concentration using a calibration curve generated using known 2HG concentrations. […] IC50 values are obtained from the individual % inhibition values at different compound concentrations using a 4-parameter equation. These calculations are carried out using Activity Base (IDBS) or Screener (Genedata) data analysis programs.

IDH2 Wild-Type = molecular target: T2, IDH2 Wild-Type (Homo sapiens, UniProt P48735); experiment: Biochemical assay for wild-type IDH2 enzyme (αKG by LC-MS); conditions: mean ± standard deviation of the mean
T2 construct: His-tag (N); made in house; host or cells: E. coli
T2 sequence (P48735 40-452): T1 sequence (P48735 40-452 R172K) with K133R
Experimental: IDH1 and IDH2 enzymes catalyze the conversion of isocitrate to αKG. Wild-type IDH1 (National Center for Biotechnology Information, Accession: NP_001269316.1) and IDH2 (National Center for Biotechnology Information, Accession: EAX02082.1) proteins containing N-terminal His-tag are expressed in E. coli and purified using nickel affinity chromatography. The enzyme assays are carried out in V-bottom 96 well polypropylene plates containing 100 mM Tris-HCl buffer at pH 7.5, 1 mM DTT, 0.005% TRITON™ X-100, 120 mM NaCl. For the IDH1 wild-type assay isocitrate, NADP^+ and MnCl2 are included at the concentrations of 85 μM, 50 μuM and 20 μM respectively. For the IDH2 wild-type assay isocitrate, NADP^+ and MnCl2 are included at the concentrations of 30 μM, 50 μM and 10 μM respectively. Inhibitors dissolved in a DMSO stock solution are diluted in the reaction mixture at a final DMSO concentration of 4%. The enzyme assay is terminated (quenched) by adding ACN (50:50) containing d6-2-ketopentanedioic acid (d6-αKG) as an internal standard for mass spectrometry analysis. Ten microliters of reaction mixture is combined with 100 μL of water, 50 μL of 1 M O-benzylhydroxylamine in pyridine buffer (8.6% pyridine, pH 5), and 50 μL of 1 M N-(3-dimethylaminopropyl)-N-ethylcarbodiimide hydrochloride (EDC) in pyridine buffer. Following derivatization at room temperature for one hour, samples are extracted with 600 μL of EtOAc. Four hundred […] of the upper layer is removed, dried under heated nitrogen and reconstituted with 100 μL of MeOH/water (1:1). Ten μL of derivatized sample is injected onto an LC-MS system consisting of a Shimadzu Prominence 20A HPLC system and a The Thermo Quantum Ultra™ triple quadrupole mass spectrometer. Analytes are separated on a Waters XBridge™ C18 column (2.1×50 mm, […]) with a flow rate of 0.6 mL/minute. Mobile phase A is 0.1% formic acid in water and mobile phase B is MeOH. The αKG signal detected is transformed into analyte concentration using a calibration curve generated using known αKG concentrations. […] IC50 values are obtained from the individual % inhibition values at different compound concentrations using a 4-parameter equation. These calculations are carried out using Activity Base (IDBS) or Screener (Genedata) data analysis programs.

IDH1/R132C = molecular target: T3, IDH1/R132C (Homo sapiens, UniProt O75874, R132C); experiment: Biochemical assay for IDH1 R132C mutant enzyme (2HG by RapidFire MS); conditions: mean ± standard deviation of the mean; 90 minutes reaction
T3 construct: His-tag (N); made in house; host or cells: E. coli
Experimental: as §1, §2

T3 sequence (O75874 whole entry R132C): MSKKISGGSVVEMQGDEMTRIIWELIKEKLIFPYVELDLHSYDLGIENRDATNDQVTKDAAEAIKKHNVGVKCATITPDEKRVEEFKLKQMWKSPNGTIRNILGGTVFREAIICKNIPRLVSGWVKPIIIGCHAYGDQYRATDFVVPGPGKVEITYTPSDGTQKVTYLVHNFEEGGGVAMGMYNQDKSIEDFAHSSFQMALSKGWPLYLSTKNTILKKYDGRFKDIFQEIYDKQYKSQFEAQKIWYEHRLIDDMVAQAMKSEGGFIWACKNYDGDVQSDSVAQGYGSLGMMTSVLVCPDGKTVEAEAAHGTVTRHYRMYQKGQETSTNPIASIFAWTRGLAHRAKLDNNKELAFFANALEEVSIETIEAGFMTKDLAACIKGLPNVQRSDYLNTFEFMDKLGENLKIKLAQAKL

| Compound | IC50 (IDH2/R172K) [nM] | IC50 (IDH2 Wild-Type) [nM] | IC50 (IDH1/R132C) [nM] |
| --- | --- | --- | --- |
| C=CC(=O)N1CC2(CN(Cc3ccc([C@H](C)Nc4ncc5c(n4)N(C(C)C)C(=O)OC5)cc3)C2)C1 [Example 15, 1-Isopropyl-7-[[(1S)-1-[4-[(2-prop-2-enoyl-2,6-diazaspiro[3.3]heptan-6-yl)methyl]phenyl]ethyl]amino]-4H-pyrimido[4,5-d][1,3]oxazin-2-one] | 10400 | 11200 ± 6400 | 109 ± 54 |
| C=CC(=O)N1CCN(Cc2ccc([C@H](C)Nc3ncc4c(n3)N(CC)C(=O)OC4)cc2F)CC1 [Example 16, 1-Ethyl-7-[[(1S)-1-[3-fluoro-4-[(4-prop-2-enoylpiperazin-1-yl)methyl]phenyl]ethyl]amino]-4H-pyrimido[4,5-d][1,3]oxazin-2-one] | 4100 | 22700 ± 11800 | 137 ± 44 |
| C=CC(=O)N1CC(COc2ccc([C@H](C)Nc3ncc4c(n3)N(CC)C(=O)OC4)cc2)C1 [Example 17, 1-Ethyl-7-[[(1S)-1-[4-[(1-prop-2-enoylazetidin-3-yl)methoxy]phenyl]ethyl]amino]-4H-pyrimido[4,5-d][1,3]oxazin-2-one] | 1740 | 950 ± 1290 | 215 ± 86 |
| C=CC(=O)N1CCN(Cc2ccc([C@H](C)Nc3ncc4c(n3)N(C)C(=O)OC4)cc2)CC1 [Example 19, 1-Methyl-7-[[(1S)-1-[4-[(4-prop-2-enoylpiperazin-1-yl)methyl]phenyl]ethyl]amino]-4H-pyrimido[4,5-d][1,3]oxazin-2-one] | 23000 ± 12400 | 28700 ± 1500 | 1580 ± 340 |
| C=CC(=O)N1CCN(Cc2ccc([C@H](C)Nc3ncc4c(n3)N(CC(F)F)C(=O)OC4)cc2)CC1 [Example 20, 1-(2,2-difluoroethyl)-7-[[(1S)-1-[4-[(4-prop-2-enoylpiperazin-1-yl)methyl]phenyl]ethyl]amino]-4H-pyrimido[4,5-d][1,3]oxazin-2-one] | 6780 ± 2400 | 12500 ± 400 | 189 ± 33 |
| C=CC(=O)N1CCN(Cc2ccc([C@H](C)Nc3ncc4c(n3)N(CCF)C(=O)OC4)cc2)CC1 [Example 21, 1-(2-fluoroethyl)-7-[[(1S)-1-[4-[(4-prop-2-enoylpiperazin-1-yl)methyl]phenyl]ethyl]amino]-4H-pyrimido[4,5-d][1,3]oxazin-2-one] | 10400 ± 7000 | 31100 ± 2100 | 485 ± 17 |
| C=CC(=O)N1CC=C(COc2ccc([C@H](C)Nc3ncc4c(n3)N(CC)C(=O)OC4)cc2)C1 [Example 22, 1-ethyl-7-[[(1S)-1-[4-[(1-prop-2-enoyl-2,5-dihydropyrrol-3-yl)methoxy]phenyl]ethyl]amino]-4H-pyrimido[4,5-d][1,3]oxazin-2-one] | 469 ± 355 | 2150 ± 130 | 77.1 ± 10.2 |
